The source of these data is patent US20250388605A1, “HETEROBIFUNCTIONAL COMPOUNDS AND METHODS OF TREATING DISEASE” (Halda Therapeutics OpCo, Inc., priority 2022, published 2025).

The test system of test [1] is T-Rex 293 cell line SC3 cells having increased expression of androgen receptor protein due to exposure to doxycycline. The test is described as follows: Cellular growth inhibition, T-Rex 293 SC3 cells with doxycycline (increased androgen receptor expression), CellTiter-Glo. The format is cell-based. To be noted: T-Rex 293 SC3 cells with 10 ng/mL doxycycline (increased androgen receptor expression), 72 hours, CellTiter-Glo 2.0. A digest of the protocol:
(§1)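 Doxycycline (10 ng/mL) was either included or omitted to toggle wild-type androgen receptor expression in SC3 cells, a T-Rex 293 clone, grown in stripped-serum, phenol red-free medium. After 72 hours with compound, viable cells were quantified by CellTiter-Glo 2.0.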
(In general: Cellular ATP, detected with luciferase, serves as a proxy for viable cell number.)

For test [2], the system named is T-Rex 293 cell line SC3 cells lacking increased expression of androgen receptor protein. The experiment in a line: Cellular growth inhibition, T-Rex 293 SC3 cells without doxycycline (no increased androgen receptor expression), CellTiter-Glo. It counts as cell-based. The note with it: T-Rex 293 SC3 cells not exposed to doxycycline (no increased androgen receptor expression), 72 hours. A digest of the protocol:
as §1

The next test has as its system VCaP cells. The experiment in a line: Cellular growth inhibition assay for VCaP cells, CellTiter-Glo. It counts as cell-based, human. To be noted: 72 hours. A digest of the protocol: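 GI50 values come from four-parameter curve fits of luminescence data normalized to a zero baseline. Compound, in medium with 0.5% DMSO, was added one day after plating and left for 72 h before CellTiter-Glo 2.0 addition.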

In a further test the test system is T47D cells. The test is described as follows: Cellular Growth Inhibition Assay for T47D Cells (CellTiter-Glo). It counts as cell-based, human. The note with it: 72 hours. Put shortly:
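GI50 values derive from four-parameter regression of CellTiter-Glo 2.0 luminescence, using zero luminescence as baseline. Human breast cancer T47D cells (3000/well; DMEM, 10% FBS, 0.2 units/mL insulin) were exposed for 72 h to compound dilutions at 0.5% DMSO, with dosing starting 24 h after seeding.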

Where only a bound is given, the exact number is not on record here.

The term GI50 denotes the concentration that inhibits growth by half. Higher therefore signals less potent growth inhibition. In the case of `CCS(=O)(=O)Nc1ccc(Oc2ccc(OCC3CCN(c4ncc(C(=O)N[C@H]5C(C)(C)[C@H](Oc6ccc(Cl)c(C#N)c6)C5(C)C)cn4)CC3)cc2)c(-c2cn(C)c(=O)c3[nH]ccc23)c1` [Compound I-277], the 50% growth inhibitory concentration (GI50) (in test [1]; in test [2]; with VCaP cells; in the test with T47D cells) was under 500 nM throughout.
Regarding `Cn1cc(-c2cc(C(C)(C)O)ccc2Oc2cccc(CC3CC4(C3)CN(c3ncc(C(=O)N[C@H]5C(C)(C)[C@H](Oc6ccc(C#N)c(Cl)c6)C5(C)C)cn3)C4)c2)c2cc[nH]c2c1=O` [Compound I-321], the GI50 (in test [1]; in test [2]; in the test with VCaP cells; in the test on T47D cells) was under 500 nM each time.
In the case of `Cn1cc(-c2cc(C(C)(C)O)ccc2Oc2ccc(C(C)(C)N3CC4(CCN(c5ncc(C(=O)N[C@H]6C(C)(C)[C@H](Oc7ccc(C#N)c(Cl)c7)C6(C)C)cn5)CC4)C3)cc2)c2cc[nH]c2c1=O` [Compound I-308], the GI50 in test [1] is under 500 nM; in test [2], 500 to 1500 nM; with VCaP cells (Homo sapiens), under 500 nM; with T47D cells (Homo sapiens) it was over 3000 nM.
With `CC(C)c1ccc(Oc2cccc(N3CC(N4CCN(c5ncc(C(=O)N[C@H]6C(C)(C)[C@H](Oc7ccc(C#N)c(Cl)c7)C6(C)C)cn5)CC4)C3)c2F)c(-c2cn(C)c(=O)c3[nH]ccc23)c1` [Compound I-123], the GI50 is under 500 nM in test [1], over 3000 nM in test [2], over 3000 nM in the test with VCaP cells (Homo sapiens) and 500 to 1500 nM in the test with T47D cells (Homo sapiens).
Turning to `CC(C)c1ccc(Oc2cccc(CCCN3CCN(c4ncc(C(=O)NC5C(C)(C)C(Oc6ccc(C#N)c(Cl)c6)C5(C)C)cn4)CC3)c2)c(-c2cn(C)c(=O)c3[nH]ccc23)c1` (stereo not shown) [Compound I-125, N-[3-(3-chloro-4-cyano-phenoxy)-2,2,4,4-tetramethyl-cyclobutyl]-2-[4-[3-[3-[4-isopropyl-2-(6-methyl-7-oxo-1H-pyrrolo[2,3-c]pyridin-4-yl)phenoxy]phenyl]propyl]piperazin-1-yl]pyrimidine-5-carboxamide], the GI50 was under 500 nM in test [1], over 3000 nM in test [2], under 500 nM in the test with VCaP cells (Homo sapiens) and 1500 to 3000 nM with T47D cells (Homo sapiens).
`CCS(=O)(=O)Nc1ccc(Oc2cccc(C3CC(N4CCN(c5ncc(C(=O)N[C@H]6C(C)(C)[C@H](Oc7ccc(C#N)c(Cl)c7)C6(C)C)cn5)CC4)C3)c2)c(-c2cn(C)c(=O)c3[nH]ccc23)c1` (stereo partly shown) [Compound I-180]: the GI50 in test [1] is under 500 nM; in test [2], over 3000 nM; in the test with VCaP cells (Homo sapiens), under 500 nM; with T47D cells (Homo sapiens), under 500 nM.
`CC(C)c1ccc(Oc2cccc(CCOC3CCN(c4ncc(C(=O)N[C@H]5C(C)(C)[C@H](Oc6ccc(C#N)c(Cl)c6)C5(C)C)cn4)CC3)c2F)c(-c2cn(C)c(=O)c3[nH]ccc23)c1` [Compound I-148]: the GI50 is under 500 nM in test [1], over 3000 nM in test [2], under 500 nM in the test with VCaP cells and 500 to 1500 nM in the test with T47D cells.
As for `Cn1cc(-c2cc(C(C)(C)O)ccc2Oc2ccc(CCC3CCN(c4cnc(C(=O)N[C@H]5C(C)(C)[C@H](Oc6ccc(C#N)c(Cl)c6)C5(C)C)cn4)CC3)cc2)c2cc[nH]c2c1=O` [Compound I-335], the concentration for 50% growth inhibition (GI50) in test [1] is over 3000 nM; in test [2], over 3000 nM; in the test with VCaP cells it was 500 to 1500 nM; in the test with T47D cells it was under 500 nM.
On to `CCS(=O)(=O)Cc1ccc(Oc2cccc(OC(C)(C)CCC3CCN(c4ncc(C(=O)N[C@H]5C(C)(C)[C@H](Oc6ccc(C#N)c(Cl)c6)C5(C)C)cn4)CC3)c2)c(-c2cn(C)c(=O)c3[nH]ccc23)c1` [Compound I-293], for which the GI50 in test [1] was under 500 nM; in test [2] it was over 3000 nM; with VCaP cells it was under 500 nM; in the test on T47D cells, under 500 nM.
For the compound `CCS(=O)(=O)Nc1ccc(Oc2cccc(OC3CN(c4ncc(C(=O)N[C@H]5C(C)(C)[C@H](Oc6ccc(C#N)c(Cl)c6)C5(C)C)cn4)C3)c2)c(-c2cn(C)c(=O)c3[nH]ccc23)c1` [Compound I-30], the GI50 (in test [1]; in test [2]; in the test with VCaP cells (Homo sapiens); with T47D cells (Homo sapiens)) was under 500 nM each time.
For `CCS(=O)(=O)c1ccc(Oc2ccc(CN3CC4(C3)CN(c3ncc(C(=O)N[C@H]5C(C)(C)[C@H](Oc6ccc(C#N)c(Cl)c6)C5(C)C)cn3)C4)c(F)c2)c(-c2cn(C)c(=O)c3[nH]ccc23)c1` [Compound I-271], the GI50 (in test [1]; in test [2]; in the test on VCaP cells (Homo sapiens); in the test on T47D cells (Homo sapiens)) was under 500 nM throughout.
`Cn1cc(-c2cc(S(C)(=O)=O)ccc2Oc2cccc(CCCC3CCN(c4ncc(C(=O)N[C@H]5C(C)(C)[C@H](Oc6ccc(C#N)c(Cl)c6)C5(C)C)cn4)CC3)c2F)c2cc[nH]c2c1=O` [Compound I-250]: the GI50 is under 500 nM in test [1], over 3000 nM in test [2], 500 to 1500 nM in the test on VCaP cells and under 500 nM in the test on T47D cells.
Take `Cn1cc(-c2cc(C(C)(C)O)ccc2OC2CCC(N3CC(OC4CCN(c5ncc(C(=O)N[C@H]6C(C)(C)[C@H](Oc7ccc(C#N)c(Cl)c7)C6(C)C)cn5)CC4)C3)CC2)c2cc[nH]c2c1=O` (stereo partly shown) [Compound I-288, N-[3-(3-chloro-4-cyano-phenoxy)-2,2,4,4-tetramethyl-cyclobutyl]-2-[4-[1-[4-[4-(1-hydroxy-1-methyl-ethyl)-2-(6-methyl-7-oxo-1H-pyrrolo[2,3-c]pyridin-4-yl)phenoxy]cyclohexyl]azetidin-3-yl]oxy-1-piperidyl]pyrimidine-5-carboxamide]: the GI50 (in test [1]; in test [2]; in the test on VCaP cells (Homo sapiens); in the test with T47D cells (Homo sapiens)) was under 500 nM in each case.
For the compound `CCS(=O)(=O)c1ccc(-c2cn(C)c(=O)c3[nH]ccc23)c(-n2cc(CCC3CCN(c4ncc(C(=O)NC5C(C)(C)C(Oc6ccc(C#N)c(Cl)c6)C5(C)C)cn4)CC3)ncc2=O)c1` (stereo not shown) [Compound I-292, N-[3-(3-chloro-4-cyano-phenoxy)-2,2,4,4-tetramethyl-cyclobutyl]-2-[4-[2-[4-[5-ethylsulfonyl-2-(6-methyl-7-oxo-1H-pyrrolo[2,3-c]pyridin-4-yl)phenyl]-5-oxo-pyrazin-2-yl]ethyl]-1-piperidyl]pyrimidine-5-carboxamide], the GI50 (in test [1]; in test [2]; in the test with VCaP cells (Homo sapiens); in the test on T47D cells (Homo sapiens)) was under 500 nM in each case.
Regarding `Cn1cc(-c2cc(C(C)(C)O)ccc2OC(CCCCOC2CCN(c3ncc(C(=O)N[C@H]4C(C)(C)[C@H](Oc5ccc(C#N)c(Cl)c5)C4(C)C)cn3)CC2)C2CC2)c2cc[nH]c2c1=O` (stereo partly shown) [Compound I-251], the GI50 is under 500 nM in test [1], 500 to 1500 nM in test [2], 500 to 1500 nM in the test on VCaP cells and 500 to 1500 nM with T47D cells.
`Cn1cc(-c2cc(C(C)(C)O)ccc2-n2cc(N3CC(CC4CCN(c5ncc(C(=O)NC6C(C)(C)C(Oc7ccc(C#N)c(Cl)c7)C6(C)C)cn5)CC4)C3)ccc2=O)c2cc[nH]c2c1=O` (stereo not shown) [Compound I-344, N-[3-(3-chloro-4-cyano-phenoxy)-2,2,4,4-tetramethyl-cyclobutyl]-2-[4-[[1-[1-[4-(1-hydroxy-1-methyl-ethyl)-2-(6-methyl-7-oxo-1H-pyrrolo [2,3-c]pyridin-4-yl)phenyl]-6-oxo-3-pyridyl]azetidin-3-yl]methyl]-1-piperidyl]pyrimidine-5-carboxamide]: the GI50 in test [1] was over 3000 nM; in test [2], over 3000 nM; in the test with VCaP cells (Homo sapiens), over 3000 nM; in the test with T47D cells (Homo sapiens) it was 500 to 1500 nM.
